Experimental data: ChEMBL document CHEMBL4052780, “Novel 1,2-dihydroquinazolin-2-ones: Design, synthesis, and biological evaluation against Trypanosoma brucei” (Bioorg Med Chem Lett, 2017)
Values after ≈ are worked out from the molar mass of the structure shown.

Tests used:
[1] = test system: Trypanosoma brucei brucei; assay: Antitrypanosomal activity against bloodstream form of Trypanosoma brucei brucei Lister 427 after 72 hrs by resazurin based fluorescence assay; format: functional; conditions: Lister 427, 72 h
[2] = Cytotoxicity against human MRC5 SV2 cells after 48 hrs by resazurin based fluorescence assay; format: cell-based; conditions: MRC-5 SV2, 48 h
[3] = Kinetic aqueous solubility of the compound by CLND method; format: physicochemical; conditions: read-out: Kinetic_solubility
[4] = test system: Trypanosoma cruzi; assay: Antitrypanosomal activity against Trypanosoma cruzi Tulahuen C4 amastigotes infected in rat L6 cells after 96 hrs by beta-galactosidase reporter gene assay; format: functional, cell-based; conditions: Tulahuen C4, L6, 96 h
[5] = test system: L6; assay: Cytotoxicity against rat L6 cells assessed as reduction in cell viability after 72 hrs by resazurin based fluorescence assay; conditions: L6, 72 h
[6] = test system: Leishmania donovani; assay: Antileishmanial activity against intracellular […] stage of Leishmania donovani MHOM/ET/67/HU3 infected in human THP1 cells measured after 72 hrs by luciferase reporter gene assay; format: functional, cell-based; conditions: MHOM/ET/67/HU3, THP-1, 72 h
[7] = test system: THP-1; assay: Cytotoxicity against human THP1 cells assessed as reduction in cell viability after 72 hrs by MTT assay; format: cell-based; conditions: THP-1, 72 h
[8] = Lipophilicity, log D of the compound at pH 7.4; format: physicochemical; conditions: buffer
[9] = test system: Liver; assay: Intrinsic clearance in human liver microsomes; format: ADME, microsome
[10] = Intrinsic clearance in rat hepatocytes assessed per million cells; format: ADME, cell-based, Hepatocyte
[11] = test system: Trypanosoma brucei brucei; assay: Antitrypanosomal activity against bloodstream form of Trypanosoma brucei brucei Lister 427 after 70 hrs by resazurin based fluorescence assay; format: functional; conditions: Lister 427, 70 h

Row | SMILES | EC50 [1] [µM] | EC50 [2] [µM] | solubility kinetic [3] [µM] | EC50 [4] [µM] | EC50 [5] [µM] | EC50 [6] [µM] | EC50 [7] [µM] | logD [8] | CLH [9] [µL/min/mg] | CLH [10] [µL/min] | EC50 [11] [µM]
1 | Cc1ccc2[nH]c(=O)nc(-c3ccccc3)c2c1 | > 40 | > 50 | 80 (≈ 18.9 µg/mL) | > 20 | > 50 | > 5 | > 50 | – | – | – | –
2 | O=c1nc(-c2ccccc2)c2ccc(-c3ccncc3)cc2[nH]1 | 14.2 | > 50 | – | > 20 | – | > 5 | > 50 | – | – | – | –
3 | O=c1nc(-c2ccccc2)c2cc(-c3cccc(N4CCOCC4)c3)ccc2[nH]1 | 5.17 | > 50 | – | 15.1 | > 50 | > 5 | > 50 | – | – | – | –
4 | O=c1nc(-c2ccccc2)c2cc(-c3cn[nH]c3)ccc2[nH]1 | 1.44 | 22 | – | 8.33 | > 50 | > 5 | > 50 | – | – | – | –
5 | O=c1nc(-c2ccccc2)c2cc(N3CCOCC3)ccc2[nH]1 | 14.1 | > 50 | 324 (≈ 99.6 µg/mL) | > 20 | > 50 | > 5 | > 50 | – | – | – | –
6 | O=c1nc(-c2ccccc2)c2cc(-c3cnc4ccccc4c3)ccc2[nH]1 | 1.73 | > 50 | – | 7.19 | > 16 | > 5 | > 50 | – | – | – | –
7 | O=c1nc(-c2ccccc2)c2ccc(-c3cncnc3)cc2[nH]1 | > 40 | > 50 | – | > 20 | – | > 5 | > 50 | – | – | – | –
8 | O=c1nc(C2CCCCC2)c2cc(-c3cc[nH]n3)ccc2[nH]1 | 5.76 | > 50 | 5 (≈ 1.47 µg/mL) | 20 | > 50 | > 5 | > 50 | – | – | – | –
9 | O=c1nc(-c2ccccc2)c2cc(-c3ccccc3F)ccc2[nH]1 | 3.71 | > 50 | – | 8.63 | 55.8 | > 5 | 50 | – | – | – | –
10 | Cc1ccncc1-c1ccc2[nH]c(=O)nc(-c3ccccc3)c2c1 | 5.07 | > 50 | – | 8.94 | > 50 | > 5 | > 50 | – | – | – | –
11 | N#Cc1ccc(-c2cccc3[nH]c(=O)nc(-c4ccccc4)c23)cc1 | > 40 | > 50 | – | > 20 | > 50 | > 5 | > 50 | – | – | – | –
12 | N#Cc1ccc(-c2ccc3[nH]c(=O)nc(-c4ccccc4)c3c2)cc1 | 1.71 | > 50 | – | 17.4 | > 50 | > 5 | > 50 | – | – | – | –
13 | Cc1cc(-c2ccc3[nH]c(=O)nc(-c4ccccc4)c3c2)ccn1 | 5.32 | > 50 | – | 16.8 | > 50 | > 5 | > 50 | – | – | – | –
14 | Cc1noc(C)c1-c1ccc2[nH]c(=O)nc(-c3ccccc3)c2c1 | 2.13 | > 50 | – | 11.9 | > 50 | > 5 | > 50 | – | – | – | –
15 | O=c1nc(-c2ccccc2)c2ccc(-c3ccc(F)cc3)cc2[nH]1 | 4.65 | > 50 | – | > 20 | – | > 5 | > 50 | – | – | – | –
16 | CN(C)c1ccc(-c2ccc3[nH]c(=O)nc(-c4ccccc4)c3c2)cn1 | 2.04 | > 50 | – | 14 | 50 | > 5 | > 50 | – | – | – | –
17 | O=c1nc(-c2ccccc2)c2cc(-c3ccc(N4CCOCC4)cc3)ccc2[nH]1 | 2.17 | 23.8 | – | 8.3 | 22.7 | > 5 | > 50 | – | – | – | –
18 | O=c1nc(-c2ccccc2)c2cc(-c3cccc(F)c3)ccc2[nH]1 | 4.29 | > 50 | – | 9.48 | 23 | > 5 | > 50 | – | – | – | –
19 | Cc1ccc(-c2ccc3[nH]c(=O)nc(-c4ccccc4)c3c2)cn1 | 5.29 | > 50 | – | 14.8 | > 50 | > 5 | > 50 | – | – | – | –
20 | Cn1cc(-c2ccc3[nH]c(=O)nc(-c4ccccc4)c3c2)cn1 | 5.6 | > 50 | – | > 20 | > 50 | > 5 | > 50 | – | – | – | –

Row | SMILES | EC50 [1] [µM] | EC50 [2] [µM] | solubility kinetic [3] [µM] | EC50 [4] [µM] | EC50 [5] [µM] | EC50 [6] [µM] | EC50 [7] [µM] | logD [8] | CLH [9] [µL/min/mg] | CLH [10] [µL/min] | EC50 [11] [µM]
21 | O=c1nc(-c2ccccc2)c2cc(N3CCNCC3)ccc2[nH]1 | > 20 | > 25 | > 1000 | > 10 | > 25 | > 2.5 | > 25 | – | – | – | –
22 | O=c1nc(-c2ccccc2)c2ccc(-c3cccc(N4CCOCC4)c3)cc2[nH]1 | 4.87 | > 50 | – | > 20 | 4.53 | > 5 | > 50 | – | – | – | –
23 | COc1ccccc1-c1nc(=O)[nH]c2ccc(-c3cc[nH]n3)cc12 | 29 | > 50 | – | 20 | > 50 | > 5 | > 50 | – | – | – | –
24 | O=c1nc(-c2ccccc2)c2cc(-c3ccccc3)ccc2[nH]1 | 4.88 | > 50 | – | > 20 | > 50 | > 5 | > 50 | – | – | – | –
25 | Cc1cncc(-c2ccc3[nH]c(=O)nc(-c4ccccc4)c3c2)c1 | 5.24 | > 50 | – | 9.56 | > 50 | > 5 | > 50 | – | – | – | –
26 | O=c1nc(-c2ccccc2)c2cc(-c3ccc(N4CCCC4)nc3)ccc2[nH]1 | 1.77 | > 50 | – | 6.29 | > 50 | > 5 | > 50 | – | – | – | –
27 | O=c1nc(-c2ccccc2)c2cc(-c3cc[nH]n3)ccc2[nH]1 | 1.04 | > 50 | 8 (≈ 2.31 µg/mL) | 13.3 | > 50 | > 5 | > 50 | 2.2 | 19 | < 1 | –
28 | Cc1ccccc1-c1nc(=O)[nH]c2ccc(-c3cc[nH]n3)cc12 | 3.14 | > 50 | 13 (≈ 3.93 µg/mL) | 5.28 | > 50 | > 5 | > 50 | – | – | – | –
29 | O=c1nc(-c2ccccc2)c2ccc(-c3cccnc3)cc2[nH]1 | > 40 | > 50 | – | > 20 | 7.73 | > 5 | > 50 | – | – | – | –
30 | CNC(=O)c1cccc(-c2ccc3[nH]c(=O)nc(-c4ccccc4)c3c2)c1 | 5.7 | > 50 | – | > 20 | > 50 | > 5 | > 50 | – | – | – | –
31 | O=c1nc(-c2ccccc2)c2cc(-c3ccncc3)ccc2[nH]1 | 1.89 | > 50 | – | 10.9 | > 50 | > 5 | – | – | – | – | 0.84
32 | O=c1nc(-c2ccccc2)c2cc(-c3cncnc3)ccc2[nH]1 | 10 | > 50 | – | > 20 | > 50 | > 5 | > 50 | – | – | – | –
33 | Cn1ccc(-c2cccc3[nH]c(=O)nc(-c4ccccc4)c23)n1 | > 40 | > 50 | – | > 20 | > 50 | > 5 | > 50 | – | – | – | –
34 | O=c1nc(C2CCC2)c2cc(-c3cc[nH]n3)ccc2[nH]1 | 5.95 | > 50 | 74 (≈ 19.7 µg/mL) | 16.9 | > 50 | > 5 | > 50 | 2.3 | – | – | –
35 | O=c1nc(-c2ccccc2)c2cc(-c3ccc(C(F)(F)F)nc3)ccc2[nH]1 | 5.21 | > 50 | – | 18.4 | > 50 | > 5 | > 50 | – | – | – | –
36 | Cn1nccc1-c1ccc2[nH]c(=O)nc(-c3ccccc3)c2c1 | 5.96 | > 50 | – | 17.4 | > 50 | > 5 | > 50 | – | – | – | –
37 | CN1CCN(c2ccc3[nH]c(=O)nc(-c4ccccc4)c3c2)CC1 | > 40 | > 50 | > 1000 | > 20 | > 50 | > 5 | > 50 | – | – | – | –
38 | O=c1nc(-c2ccccc2)c2cc(-c3ccc(F)cc3)ccc2[nH]1 | 3.88 | > 50 | – | 8.73 | 50 | > 5 | > 50 | – | – | – | –
39 | O=c1nc(-c2ccccc2)c2cc(-c3cccnc3)ccc2[nH]1 | 5.35 | > 50 | – | 15.8 | > 50 | > 5 | > 50 | – | – | – | –
